The values that follow come from patent publication US7247622B2, “Pharmaceutical compositions containing oxapenem-3-carboxylic acids” (Amura Limited, priority 2000, dated 2007).

In one data set the test system is C. freundii C2-con. Put plainly: MIC by agar dilution (NCCLS), de-repressed Class C β-lactamases. The data set is classed as cell-based. As to conditions: unit assumed. The procedure:
(§1) The assays to determine the Minimum Inhibitory Concentration (MIC) were performed by Agar dilution according to NCCLS guidelines (2000).

The next data set has as its system E. cloacae Hennessy. Described as above. As to conditions: unit assumed. The data set is classed as cell-based. Here is the method:
as §1

A further data set relates to E. cloacae 84-CON. The description is as above. As to conditions: unit assumed. The data set is classed as cell-based. The procedure:
as §1

The next data set has as its system S marcescens S2-con. The description is as above. The data set is classed as cell-based. The settings on record: unit assumed. Here is the method: as §1
Data set [1] in a line: Plasma blood levels in mice following subcutaneous administration. The format is in vivo. The settings on record: for bioavailability: sub-cutaneous administration, compared with salts XOB and U. The procedure: The plasma blood levels in mice (mean of 3 per time point) of compositions XOB, YOB, PFOB and […] were measured at time points of 5, 10, 20 and 30 minutes following subcutaneous (SC) administration at a dose of 50 mg per kg. The results are shown in Table 2 and illustrated in FIG. 1.

Another data set relates to E. cloacae P99. Put plainly: MIC by agar dilution (NCCLS), de-repressed Class C β-lactamases. The data set is classed as cell-based. As to conditions: unit assumed. Here is the method:
as §1
(Agar dilution tests growth on a series of plates holding different concentrations.)

For a further data set, the system named is E. coli TEM-10. The data set is described as follows: MIC by agar dilution (NCCLS), Class A β-lactamases. The format is cell-based. As to conditions: CAZ alone or 2:1 ratio of ceftazidime with oxapenem, unit assumed. The procedure:
as §1

The next data set deals with E. coli TEM-3. The data set is described as follows: MIC by agar dilution (NCCLS), Class A β-lactamases. The format is cell-based. As to conditions: CAZ alone or 2:1 ratio of ceftazidime with oxapenem, unit assumed. The procedure: as §1
For another data set, the system named is E. coli ATCC 25922. The data set is described as follows: MIC by agar dilution (NCCLS), Class A β-lactamases. As to conditions: CAZ alone or 2:1 ratio of ceftazidime with oxapenem, unit assumed. The format is cell-based. The procedure:
as §1

A further data set deals with E. coli TEM-9. Put plainly: MIC by agar dilution (NCCLS), Class A β-lactamases. The data set is classed as cell-based. The settings on record: CAZ alone or 2:1 ratio of ceftazidime with oxapenem, unit assumed. The procedure:
as §1

For the next data set, the system named is E. coli TEM-6. The data set is described as follows: MIC by agar dilution (NCCLS), Class A β-lactamases. The format is cell-based. As to conditions: CAZ alone or 2:1 ratio of ceftazidime with oxapenem, unit assumed. Here is the method: as §1
The next data set has as its system E. coli TEM-1. The data set is described as follows: MIC by agar dilution (NCCLS), Class A β-lactamases. The format is cell-based. As to conditions: CAZ alone or 2:1 ratio of ceftazidime with oxapenem, unit assumed. The procedure: as §1
The conditions of data set [2]: human serum; cited from earlier work.
Data set [3] is described as follows: Stability in blood serum, determined microbiologically by agar diffusion test. The format is in vitro ADME, bovine. The procedure:
The blood serum stability was determined microbiologically using an agar diffusion test with Escherichia coli TEM 1 (penicillin resistant). The oxapenems were incubated with sterile bovine serum (OXOID) at 37° C. in 0.033% concentration.
For orientation: A growth-free zone around the sample is the usual read-out of agar diffusion tests.

The nature of data set [4]: Chemical stability: half-life of hydrolysis in phosphate buffer by UV spectroscopy. The data set is classed as physicochemical. As to conditions: 37° C., physiological phosphate buffer pH 7.4, 10^−4M oxapenem. Here is the method: The half-lives of hydrolysis were determined at 37° C. in physiological phosphate buffer pH 7.4 by UV spectroscopy at 265 nm at a 10^−4M concentration of oxapenem

Setting [5] is: CAZ alone or 1:1 ratio of ceftazidime with oxapenem.
Where [6] appears, read: CAZ alone or 2:1 ratio of ceftazidime with oxapenem.

Each structure is given as a SMILES string. Where only a bound is given, the exact number is not on record here.

Broadly, the MIC is the lowest concentration found to suppress growth.

Consider `C[C@@H](O)[C@H]1C(=O)N2C(C(=O)O)=C(C(C)(C)CCCN)O[C@H]12` [(5R,6R,1′R)-3-(4-amino-1,1-dimethylbutyl)-6-(1′-hydroxyethyl)-7-oxo-4-oxa-1-azabicyclo[3.2.0]hept-2-ene-2-carboxylic Acid], for which the MIC was determined as 0.03 µg/mL in the data set with C. freundii C2-con (setting [5]); 2 µg/mL in the data set on C. freundii C2-con (setting [6]); 4 µg/mL in the data set on E. cloacae Hennessy (setting [6]); 4 µg/mL in the data set with E. cloacae 84-CON (setting [5]); 4 µg/mL in the data set on E. cloacae 84-CON (setting [6]); 0.03 µg/mL in the data set on S marcescens S2-con (setting [5]). Besides, the concentration at 5 min in [1] (mouse, plasma, SC 50 mg per kg, 5 min, mean of 3, read-out: Conc. (mg/L) 5 min) worked out at 26.4 mg/L. The concentration at 10 min in data set [1] (mouse, plasma, SC 50 mg per kg, 10 min, mean of 3, read-out: Conc. (mg/L) 10 min) is 25.4 mg/L. For the same compound, in data set [1] (mouse, plasma, SC 50 mg per kg, 20 min, mean of 3, read-out: Conc. (mg/L) 20 min), the concentration at 20 min is 12.9 mg/L. Also, the concentration at 30 min in [1] (mouse, plasma, SC 50 mg per kg, 30 min, mean of 3, read-out: Conc. (mg/L) 30 min) is 2.89 mg/L. For the same compound, in data set [1], the bioavailability result is given as “remarkably superior bioavailability”.

Take `CC(C)(O/N=C(\C(=O)N[C@@H]1C(=O)N2C(C(=O)[O-])=C(C[n+]3ccccc3)CS[C@H]12)c1csc(N)n1)C(=O)O` [CAZ, Ceftazidime]: the MIC is 32 µg/mL with E. cloacae P99 (setting [5]); 32 µg/mL with E. cloacae P99 (setting [6]); 64 µg/mL with C. freundii C2-con (setting [5]); 64 µg/mL with C. freundii C2-con (setting [6]); over 64 µg/mL with E. cloacae Hennessy (setting [5]); over 64 µg/mL with E. cloacae Hennessy (setting [6]). Moreover, the MIC in the data set on E. cloacae 84-CON (setting [5]) is over 64 µg/mL; in the data set with E. cloacae 84-CON (setting [6]), over 64 µg/mL; in the data set on S marcescens S2-con (setting [5]), 1 µg/mL; with S marcescens S2-con (setting [6]), 1 µg/mL; with E. coli TEM-10 it was over 64 µg/mL; with E. coli TEM-3, 16 µg/mL. Moreover, the MIC in the data set with E. coli ATCC 25922 is 0.25 µg/mL; in the data set on E. coli TEM-9, over 64 µg/mL; in the data set on E. coli TEM-6 it was over 64 µg/mL; in the data set with E. coli TEM-1, 0.25 µg/mL. Also, the “in vivo biological half life” value in data set [2] is on record as 1.7-2.1 hrs.

As for `CO/N=C(\C(=O)N[C@@H]1C(=O)N2C(C(=O)O)=C(CSc3nc(=O)c(=O)[nH]n3C)CS[C@H]12)c1csc(N)n1` [Ceftriaxon], in data set [2], the “in vivo biological half life” value is listed as 5.8-8.7 hrs.

Take `O=C(O)[C@H]1/C(=C/CO)O[C@@H]2CC(=O)N21` [Clavulanate]: the “in vivo biological half life” value in [2] is 0.7-1.4 hrs.

Regarding `C[C@@H](O)[C@H]1C(=O)N2C(C(=O)O)=C(SCCN=CN)C[C@H]12` [Imipenem], in data set [2], the “in vivo biological half life” value is reported as 0.9 hrs.

Regarding `C[C@H](O)[C@H]1C(=O)N2C(C(=O)O)=C(C(C)(C)CCCN)O[C@H]12` [YOB, (5R,6R,1′S)-3-(4-amino-1,1-dimethylbutyl)-6-(1-hydroxyethyl)-7-oxo-4-oxa-1-azabicyclo[3.2.0]hept-2-ene-2-carboxylic Acid], the minimum inhibitory concentration (MIC) in the data set with E. coli ATCC 25922 amounted to 0.03 µg/mL; in the data set on E. coli TEM-1, 0.06 µg/mL. The “stability in blood serum” value in data set [3] (bovine serum, 37° C., compared to XOB) is reported as “far more stable than XOB in blood serum”. In data set [3] (sterile bovine serum, 0.033% concentration), the “Serum half life at 37° C.” value was 2.4 h. Besides, the “Conc. (mg/L) 5 min” value in data set [1] (plasma, SC 50 mg per kg, 5 min, mean of 3) is reported as 40.12 mg/L. The “Conc. (mg/L) 10 min” value in data set [1] (plasma, SC 50 mg per kg, 10 min, mean of 3) turned out to be 44.88 mg/L. Besides, the “Conc. (mg/L) 20 min” value in [1] (plasma, SC 50 mg per kg, 20 min, mean of 3) worked out at 13.79 mg/L. Also, the “Conc. (mg/L) 30 min” value in [1] (plasma, SC 50 mg per kg, 30 min, mean of 3) worked out at 10.4 mg/L. In data set [1], the bioavailability result was “remarkably superior bioavailability”. This compound registered a Half-live of hydrolysis in data set [4] of 7.0 h.
